From US8187508B2, “Base agent for electrical insulating oil” (Lion Corporation, priority 2005, dated 2012)

Assays:
[1] = Dielectric breakdown voltage (JIS C2101); format: physicochemical
Description: (§1) It will be noted that in the following Examples and Comparative Examples, an acid value, moisture content, kinetic viscosity, flash point, oxidation stability, dielectric breakdown voltage, specific permittivity, and a content of fatty acid triglyceride are, respectively, values measured according to the following methods. • (1) Acid value: determined by a method pursuant to a potentiometric method of JIS K1557. • (2) Moisture content: determined by a method pursuant to the Carl Fisher method of JIS K0068. • (3) Kinetic viscosity: determined by a method pursuant to the Canon Fenske viscometer of JIS K2283. • (4) Flash point: determined by a method pursuant to the Cleaveland open-cup method of JIS K2265. • (5) Oxidation stability: determined by a method pursuant to the electrical insulating oil testing method of JIS C2101. • (6) Dielectric breakdown voltage: determined by a method pursuant to the electric insulating oil testing method of JIS C2101. • (7) Specific permittivity: determined by a method pursuant to the electric insulating oil testing method of JIS C2101. • (8) Content of fatty acid triglyceride: about 40 mg of a sample was placed in a 3-ml vial container, to which 0.5 ml of pyridine, 0.4 ml of hexamethyldisilazane and 0.2 ml of trimethylchlorosilane were added, followed by trimethylsilylation at 80° C. for 30 minutes and subjecting the resulting supernatant liquid to gas chromatographic analysis.

[2] = Flash point (Cleaveland open-cup method, JIS K2265); format: physicochemical
Description: as §1

[3] = Specific permittivity (JIS C2101); format: physicochemical
Description: as §1

[4] = Kinetic viscosity (Canon Fenske viscometer, JIS K2283); format: physicochemical
Description: as §1

[5] = Oxidation stability test (JIS C2101); format: physicochemical; details: for Oxidation stability test, 120° C. after 75 hours: acid value after 120° C.; for Oxidation stability test, Initial value: acid value before the test
Experimental: In order to ensure good stability to oxygen and heat, the base agent for electrical insulating oils of the invention should preferably have a total acid value of not higher than 0.5 mg of KOH/g, more preferably not higher than 0.3 mg of KOH/g, after deterioration in an oxidation stability test (120° C., 75 hours) described in JIS C2101.
as §1

rabbit = details: in vivo; cited from earlier work
human being = details: in vivo; cited from earlier work

Compound	Di-electric breakdown voltage [1]	Flash point [2]	Specific permittivity (80° C.) [3]	Kinetic viscosity (40° C.) [4]	Oxidation stability test, 120° C. after 75 hours [5]	Oxidation stability test, Initial value [5]	Eye irritation (rabbit)	Dermal irritation average point (human being)
CCCCC(CC)C(=O)OCC(COC(=O)C(CC)CCCC)OC(=O)C(CC)CCCC (centres unmarked) [2-ethylhexanoic acid triglyceride]							rabbit, 100%, OECD 405 method: no	test: average point = 0.05
CC(CC(=O)OCC(COC(=O)CC(C)CC(C)(C)C)(COC(=O)CC(C)CC(C)(C)C)COC(=O)CC(C)CC(C)(C)C)CC(C)(C)C (centres unmarked) [pentaerythritol ester of 3,5,5-trimethylhexanoic acid, reference compound]	55 KV/2.5 mm	>250 °C	>3.0	110 mm^2/s	0.8 mgKOH/g	0.02 mgKOH/g		

The next lines start with results.

Di-electric breakdown voltage [1]	Flash point [2]	Specific permittivity (80° C.) [3]	Kinetic viscosity (40° C.) [4]	Oxidation stability test, 120° C. after 75 hours [5]	Oxidation stability test, Initial value [5]	Compound	Eye irritation (rabbit)	Dermal irritation average point (human being)
78 KV/2.5 mm	175 °C	2.7	5 mm^2/s	0.3 mgKOH/g	0.002 mgKOH/g	CCCCCCCCCCCC(=O)OCC(CC)CCCC (centres unmarked) [2-ethyl hexyl laurate, 2-ethylhexyl laurate, reference compound]		
71 KV/2.5 mm	235 °C	3.8	12.5 mm^2/s	0.4 mgKOH/g	0.002 mgKOH/g	CCCCCCCC(=O)OCC(COC(=O)CCCCCCC)OC(=O)CCCCCCC [base agent B, caprylic acid triglyceride]		
73 KV/2.5 mm	220 °C	3.5	16 mm^2/s	0.2 mgKOH/g	0.008 mgKOH/g	CCCCC(CC)C(=O)OCC(COC(=O)C(CC)CCCC)OC(=O)C(CC)CCCC (centres unmarked) [base agent E, 2-ethylhexanoic acid triglyceride]		
